From the supplement of paper PMC10307832

Tests used:
Test in all cases: relative viability (nuclei count vs DMSO), 5 days (fraction); higher = more cells survive
Apatinib + Bortezomib = compound: N#CC1(c2ccc(NC(=O)c3cccnc3NCc3ccncc3)cc2)CCCC1 [Apatinib] + CC(C)C[C@H](NC(=O)[C@H](Cc1ccccc1)NC(=O)c1cnccn1)B(O)O [Bortezomib] (partner 0.002 µM)
Procedure, shortened: (§1)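 For relative viability, nuclei counts in treated wells were divided by those in vehicle wells. Lung cancer cell lines had been pin-tool dosed in 1536-well plates the day after seeding and cultured for 5 days, then fixed and stained in one step (final 0.05% Triton X-100, 1% formaldehyde, 1 ug/ml Hoechst) and imaged at 4×. Doses were one drug alone or a fixed anchor-drug dose plus five library-drug doses (not always all listed) in √10 steps, and values are duplicate-plate medians.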

Apatinib + Pemetrexed = compound: N#CC1(c2ccc(NC(=O)c3cccnc3NCc3ccncc3)cc2)CCCC1 [Apatinib] + Nc1nc2[nH]cc(CCc3ccc(C(=O)N[C@@H](CCC(=O)O)C(=O)O)cc3)c2c(=O)[nH]1 [Pemetrexed] (partner 0.2 µM)
Procedure, shortened: as §1

Apatinib + Tozasertib = compound: N#CC1(c2ccc(NC(=O)c3cccnc3NCc3ccncc3)cc2)CCCC1 [Apatinib] + Cc1cc(Nc2cc(N3CCN(C)CC3)nc(Sc3ccc(NC(=O)C4CC4)cc3)n2)n[nH]1 [Tozasertib] (partner 0.1 µM)
Procedure, shortened: as §1

Metformin + Dasatinib = compound: CN(C)C(=N)NC(=N)N [Metformin] + Cc1nc(Nc2ncc(C(=O)Nc3c(C)cccc3Cl)s2)cc(N2CCN(CCO)CC2)n1 [Dasatinib] (partner 0.075 µM)
Procedure, shortened: as §1

| Cell Line | relative viability (Apatinib + Bortezomib; first compound 0.08 µM) | relative viability (Apatinib + Bortezomib; first compound 0.253 µM) | relative viability (Apatinib + Bortezomib; first compound 0.8 µM) | relative viability (Apatinib + Bortezomib; first compound 8 µM) | relative viability (Apatinib + Pemetrexed; first compound 0.08 µM) | relative viability (Apatinib + Pemetrexed; first compound 0.253 µM) | relative viability (Apatinib + Pemetrexed; first compound 0.8 µM) | relative viability (Apatinib + Pemetrexed; first compound 2.53 µM) | relative viability (Apatinib + Pemetrexed; first compound 8 µM) | relative viability (Apatinib + Tozasertib; first compound 0.08 µM) | relative viability (Apatinib + Tozasertib; first compound 0.253 µM) | relative viability (Apatinib + Tozasertib; first compound 0.8 µM) | relative viability (Apatinib + Tozasertib; first compound 2.53 µM) | relative viability (Apatinib + Tozasertib; first compound 8 µM) | relative viability (Metformin + Dasatinib; first compound 10 µM) | relative viability (Metformin + Dasatinib; first compound 31.62 µM) | relative viability (Metformin + Dasatinib; first compound 316.23 µM) | relative viability (Metformin + Dasatinib; first compound 1000 µM) | relative viability (Apatinib + Bortezomib; first compound 2.53 µM) | relative viability (Metformin + Dasatinib; first compound 100 µM) |
| --- | --- | --- | --- | --- | --- | --- | --- | --- | --- | --- | --- | --- | --- | --- | --- | --- | --- | --- | --- | --- |
| NCI-H2347 | 0.847 | 1.06 | 1.13 | 0.891 | 0.477 | 0.404 | 0.449 | 0.409 | 0.409 | 0.504 | 0.651 | 0.604 | 0.428 | 0.466 | 0.336 | 0.369 | 0.307 | 0.354 |  |  |
| LU99A | 1.21 | 1.22 | 1.2 | 0.976 | 0.189 | 0.198 | 0.183 | 0.174 | 0.212 | 0.325 | 0.317 | 0.276 | 0.231 | 0.203 | 0.415 | 0.459 | 0.516 | 0.538 | 0.943 | 0.511 |
| NCI-H3122 | 1.04 | 1.05 | 1.05 | 0.958 | 0.212 | 0.192 | 0.199 | 0.202 | 0.188 | 0.551 | 0.368 | 0.432 | 0.374 | 0.367 | 0.509 | 0.879 | 0.666 | 0.896 | 1.04 | 0.897 |
| SW 1573 | 1.15 | 1.04 | 0.982 | 0.944 | 0.87 | 0.854 | 0.806 | 0.708 | 0.394 | 0.165 | 0.196 | 0.193 | 0.185 | 0.183 | 0.589 | 0.833 | 0.425 | 0.551 | 1.05 | 0.708 |
| HARA | 1.14 | 1.07 | 1.14 | 1.18 | 0.246 | 0.227 | 0.21 |  | 0.173 | 0.119 | 0.129 | 0.121 | 0.0894 | 0.0993 |  | 0.311 | 0.319 | 0.423 | 0.992 | 0.389 |
| 201T | 1.07 | 1.07 | 1.1 | 1.08 | 0.325 | 0.37 | 0.297 | 0.334 | 0.316 | 0.96 | 0.878 | 0.897 | 0.808 | 0.615 |  | 0.579 | 0.53 | 0.559 | 1.11 | 0.63 |
| NCI-H838 | 0.931 | 0.963 | 0.57 | 0.712 | 0.259 | 0.291 | 0.228 | 0.221 | 0.207 | 0.301 | 0.302 | 0.248 | 0.222 | 0.213 | 0.271 | 0.254 | 0.241 | 0.348 | 0.887 | 0.356 |
| NCI-H1734 | 0.98 | 1.11 | 0.947 | 0.759 | 0.452 | 0.456 | 0.429 | 0.403 | 0.255 | 0.246 | 0.283 | 0.219 | 0.231 | 0.231 | 0.413 | 0.472 | 0.47 | 0.498 | 0.764 | 0.463 |
| NCI-H1915 | 0.953 | 0.984 | 0.956 | 0.924 | 0.503 | 0.493 | 0.512 | 0.408 | 0.392 | 0.422 | 0.445 | 0.43 | 0.35 | 0.267 |  | 0.34 | 0.335 | 0.355 | 0.812 | 0.346 |
